{
  "source": "patent US20220031697A1",
  "about": "“Dose and regimen for an hdm2-p53 interaction inhibitor in hematological tumors” (Novartis AG, priority 2017, published 2022)",
  "system": "advanced TP53 wild-type (WT) leukemias",
  "format": "in vivo, human",
  "key": {"[1]": {"details": "Regimen 1A 250 mg, cut-off 15 Jan. 2018"}, "[2]": {"details": "Regimen 1A 250 mg, n=10, cut-off 15 Jan. 2018"}, "[3]": {"details": "Regimen 1B 120 mg, n=23, cut-off 15 Jan. 2018"}, "[4]": {"details": "Regimen 2C 45 mg, n=25, cut-off 15 Jan. 2018"}},
  "note": "Where two headings read alike, the source gives them in different places.",
  "data": [
    {"smiles": "COc1ncc(-c2nc3c(n2C(C)C)[C@H](c2ccc(Cl)cc2)N(c2cc(Cl)cn(C)c2=O)C3=O)c(OC)n1", "note": "[HDM201, (S)-5-(5-Chloro-1-methyl-2-oxo-1,2-dihydro-pyridin-3-yl)-6-(4-chloro-phenyl)-2-(2,4-dimethoxy-pyrimidin-5-yl)-1-isopropyl-5,6-dihydro-1H-pyrrolo[3,4-d]imidazol-4-one]", "values": [
      {"measurement": "Count recovery time from C1D1", "setting": "CR patient, 1A 250 mg", "result": 48, "unit": "days"},
      {"measurement": "Duration of CR/CRi", "setting": "CR patient, 1A 250 mg", "result": 50, "unit": "days"},
      {"measurement": "Time to CR/CRi", "setting": "CR patient, 1A 250 mg", "result": 7, "unit": "weeks"},
      {"measurement": "Count recovery time from C1D1", "setting": "CR patient, 1A 400 mg", "result": 40, "unit": "days"},
      {"measurement": "Duration of CR/CRi", "setting": "CR patient, 1A 400 mg", "result": 23, "unit": "days"},
      {"measurement": "Time to CR/CRi", "setting": "CR patient, 1A 400 mg", "result": 6, "unit": "weeks"},
      {"measurement": "Count recovery time from C1D1", "setting": "CR patient, 2C 45 mg", "result": 32, "unit": "days"},
      {"measurement": "Duration of CR/CRi", "setting": "CR patient, 2C 45 mg", "result": 152, "unit": "days"},
      {"measurement": "Time to CR/CRi", "setting": "CR patient, 2C 45 mg", "result": 5, "unit": "weeks"},
      {"measurement": "Duration of CR/CRi", "setting": "CRi patient, 1B 150 mg", "result": 51, "unit": "days"},
      {"measurement": "Time to CR/CRi", "setting": "CRi patient, 1B 150 mg", "result": 11, "unit": "weeks"},
      {"measurement": "Duration of CR/CRi", "setting": "[1]", "result": "50 to 125", "unit": "days"},
      {"measurement": "Time to CR/CRi", "setting": "[1]", "result": "24 to 50", "unit": "days"},
      {"measurement": "CR (patients)", "setting": "[2]", "result": 1},
      {"measurement": "CRi (patients)", "setting": "[2]", "result": 1},
      {"measurement": "BOR: CR", "setting": "Regimen 1A (n = 15)", "result": "2 (13) n (%)"},
      {"measurement": "BOR: CRi", "setting": "Regimen 1A (n = 15)", "result": "0 (0) n (%)"},
      {"measurement": "ORR (CR + CRi + PR)", "setting": "Regimen 1A (n = 15)", "result": "2 (13) n (%)"},
      {"measurement": "Duration of CR/CRi", "setting": "Regimen 1B 120 mg, DoR censored, cut-off 15 Jan. 2018", "result": "1 day (DoR"},
      {"measurement": "Time to CR/CRi", "setting": "Regimen 1B 120 mg, cut-off 15 Jan. 2018", "result": 30, "unit": "days"},
      {"measurement": "CR (patients)", "setting": "[3]", "result": 1},
      {"measurement": "CRi (patients)", "setting": "[3]", "result": 0},
      {"measurement": "BOR: CR", "setting": "Regimen 1B (n = 6)", "result": "0 (0) n (%)"},
      {"measurement": "BOR: CRi", "setting": "Regimen 1B (n = 6)", "result": "1 (17) n (%)"},
      {"measurement": "ORR (CR + CRi + PR)", "setting": "Regimen 1B (n = 6)", "result": "1 (17) n (%)"},
      {"measurement": "Clinical activity", "setting": "Regimen 2A (2 weeks on/2 week off), doses up to 30 mg", "result": "without evidence of clinically meaningful activity"},
      {"measurement": "BOR: CR", "setting": "Regimen 2A (n = 7)", "result": "0 (0) n (%)"},
      {"measurement": "BOR: CRi", "setting": "Regimen 2A (n = 7)", "result": "0 (0) n (%)"},
      {"measurement": "ORR (CR + CRi + PR)", "setting": "Regimen 2A (n = 7)", "result": "0 (0) n (%)"},
      {"measurement": "Count recovery time of the patient with CR", "setting": "Regimen 2C 45 mg", "result": 32, "unit": "days"},
      {"measurement": "Overall response rate", "setting": "Regimen 2C 45 mg, 7 patients with post-baseline assessment", "result": 57.1, "unit": "%"},
      {"measurement": "Time to CR/CRi", "setting": "Regimen 2C 45 mg, cut-off 15 Jan. 2018", "result": "34 to 49", "unit": "days"},
      {"measurement": "CR (patients)", "setting": "[4]", "result": 2},
      {"measurement": "CRi (patients)", "setting": "[4]", "result": 4},
      {"measurement": "Duration of CRi", "setting": "Regimen 2C 45 mg, one of three CRi patients", "result": 40, "unit": "days"},
      {"measurement": "Duration of complete response", "setting": "Regimen 2C 45 mg, one patient", "result": 152, "unit": "days"},
      {"measurement": "BOR: CR", "setting": "Regimen 2C (n = 7)", "result": "1 (14) n (%)"},
      {"measurement": "BOR: CRi", "setting": "Regimen 2C (n = 7)", "result": "3 (43) n (%)"},
      {"measurement": "ORR (CR + CRi + PR)", "setting": "Regimen 2C (n = 7)", "result": "4 (57) n (%)"},
      {"measurement": "Best percentage change in blast percentage in bone marrow (BM) aspirate", "setting": "Regimen 2C, AML patients, FIG. 1", "result": "strong efficacy"},
      {"measurement": "BOR: CR", "setting": "Total (N = 35)", "result": "3 (9) n (%)"},
      {"measurement": "BOR: CRi", "setting": "Total (N = 35)", "result": "4 (11) n (%)"},
      {"measurement": "ORR (CR + CRi + PR)", "setting": "Total (N = 35)", "result": "7 (20) n (%)"}
    ]}
  ]
}
